Measurements published in patent US20230028880A1, “CD38-BINDING AGENTS AND USES THEREOF” (Biohaven Therapeutics Ltd., priority 2019, published 2023).
“And” between values parts separate entries of the source, which are not always exact repeats. Equal entries are not always repeated. “Also recorded” adds a separate entry of the source.

Legend:
Assay type in all cases: cell-based
[1] = system: NK cells (CIML and non-CIML); test: CIML NK cell fratricide assay
Protocol: PBMC isolation: Leukopheresis product from a donor with body mass index (BMI) between 19-25, under 50 years old, not on immuno-suppressive drugs for at least 2 weeks with an estimated PBMC cell count of >10^10 was obtained from Key Biologics (subject ID 20982200) and transported at ambient temperature. Leukopheresis bag was wiped down with 70% EtOH, a small slit was made and contents were pipetted off into tubes. Leukopak contents were diluted 1:1 with PBS without Ca++/Mg++ and 20 ml of this mixture was layered on top of 25 mL of Ficoll. Tubes were then centrifuged at 400 g for 30 minutes without brakes. PBMCs were harvested from the interface into separate tubes, and tubes were filled to 50 mL with PBS. Cells were centrifuged for 10 min at 120 g to get rid of platelets. Supernatant was poured off and cells were re-suspended in RPMI 10% FBS at a concentration of 7-10×10^6 cells/ml. Cells were cultured overnight at 37 C in a 5% CO2 atmosphere until NK cell isolation.
NK cell isolation: PBMC were centrifuged at 400 g for 10 min and re-suspended in EasySep buffer. NK cells were isolated using NK cell isolation kits from […] Technologies according to kit's manufacturers' instructions. NK cell purity and phenotype was assessed by trypan Blue and flow cytometry using the following antibody cocktail: anti-CD56PE, CD3 APC, and viability was determined using staining with Trypan Blue exclusion dye, and by flow cytometry using Near Infra-Red Fixable viability dye (Thermo Fisher).
CIML NK cell generation: Isolated NK cells were re-suspended at 2×10^6 cells/ml in XVIVO 10% Human Serum and the following concentrations IL-15 (50 ng/ml), IL-12 (10 ng/ml), IL-18 (50 ng/ml) for 12 to 18 hrs. Cells were harvested and tested for purity and viability by Trypan Blue staining and by Flow Cytometry using Near Infra-Red Fixable viability dye (Thermo Fisher), CD3 APC (Biolegend) and CD56 PE (Biolegend).
The stock was then serially diluted in 100% DMSO to achieve 1000× concentrations to be used in the experiment. The 100% DMSO compound stock was then added to a tube and media was added to a volume of 1000 ul per 1 ul of compound and vortexed for 1 minute to ensure a homogenous mixture.
Similarly, NK cell pellets were re-suspended in Daratumumab control antibody solutions (a range of 3 ug/ml to 0.01 ug/ml in PBS 5% HSA). Resulting NK cell suspensions were aliquoted at 55 ul/well of a 96 wellv-bottom plate and were incubated for 2 hrs at 37° C. in a 5% CO2 atmosphere.

[2] = system: Effector cells (ADCC reporter cells) with Daudi cells; test: ADCC reporter assay: Daudi cells, IVIG and ADCC reporter effector cells (luciferase, RLU); details: IVIG; for Luminescence, ADCC reporter assay: duplicate columns
Summary of the method: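 Daudi targets (5,000/well) were combined with compound (8 concentrations, ½-log steps), human IVIG added at 40 ug/mL, and 37,500 ADCC reporter effector cells per well. After 18 h at 37° C and equilibration to 25° C, luciferase luminescence was read.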

[3] = system: Daudi cells; test: KILR ADCC killing assay: KILR-transfected Daudi cells with purified NK cells (% dead cells); details: for % dead cells, KILR ADCC killing assay: KILR Daudi cells with purified NK cells, duplicate columns
Summary of the method: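 Daudi cells carrying a KILR ePL-tagged beta-gal reporter were co-cultured with purified NK cells; cell death releases the reporter into the medium. Complementing enzyme acceptor in the detection reagent gives chemiluminescence, read as % dead cells.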

CCCCC[C@@H]1NC(=O)[C@H](CCCNC(=N)N)NC(=O)[C@H](C)NC(=O)CSC[C@@H](C(=O)NCCOCCOCCOCCOCCOCCOCCn2nnc3c2CCC2C(CC3)C2COC(=O)N2CCC(C(=O)NCC(=O)N[C@H](CCC(=O)N[C@H](CCC(=O)N[C@H](CCC(=O)O)C(=O)N[C@H](CCC(=O)N[C@H](CCC(=O)NCC(=O)NCC(=O)N[C@@H](CC(=O)O)C(=O)N[C@H]3CSSC[C@@H](C(=O)N[C@H](C(=O)O)[C@@H](C)O)NC(=O)[C@H](Cc4c[nH]c5ccccc45)NC(=O)[C@H](C(C)C)NC(=O)[C@H](CC(C)C)NC(=O)[C@H](CCC(=O)O)NC(=O)CNC(=O)[C@H](CC(C)C)NC(=O)[C@H](Cc4c[nH]cn4)NC(=O)[C@H](Cc4c[nH]c5ccccc45)NC(=O)[C@H](C)NC3=O)C(=O)O)C(=O)O)C(=O)O)C(=O)O)CC2)NC(=O)[C@H](CC(=O)O)NC(=O)[C@H](CCCCC)NC(=O)[C@H](Cc2ccc(-c3ccccc3)cc2)NC(=O)[C@H](CC(C)C)NC(=O)[C@H](C(C)C)NC(=O)CNC(=O)[C@H](CC(=O)O)NC(=O)[C@H](Cc2c[nH]cn2)NC(=O)[C@H](Cc2ccc(O)cc2)NC1=O (stereo partly drawn) [I-17]
NK cell fratricide / toxicity ([1]; 2 hr incubation, up to the highest doses (FIG. 5)): no apparent NK cell fratricide was detected; also recorded: low toxicity
increase in the percentage of dead NK cells ([1]; CIML NK cells, 2 hours post-incubation, daratumumab 3 ug/ml or 20.1 nM, I-17 +/-IVIG): no increase
increase in dead NK cells (I-17 IvIG vs DMSO IVIG control) ([1]; non-CIML NK cells, 2 h, I-17 25 uM with IVIG 500 ug/ml): 0.93%
increase in dead NK cells over DMSO treated control ([1]; non-CIML NK cells, 2 h, I-17 at 25 uM vs DMSO control): 1.7%
EC50 ([2]; ADCC reporter assay): 5.9 nM
EC70 ([2]; ADCC reporter cells, 18 h, one set of experiment (FIG. 2)): about 2.7 nM
Luminescence, ADCC reporter assay ([2]; compound 0.3 nM, 18 h): 26632 RLU and 25947 RLU
Luminescence, ADCC reporter assay ([2]; compound 1 nM, 18 h): 32303 RLU and 36226 RLU
Luminescence, ADCC reporter assay ([2]; compound 3 nM, 18 h): 50671 RLU and 54979 RLU
Luminescence, ADCC reporter assay ([2]; compound 10 nM, 18 h): 63014 RLU and 62702 RLU
Luminescence, ADCC reporter assay ([2]; compound 30 nM, 18 h): 69329 RLU and 70980 RLU
Luminescence, ADCC reporter assay ([2]; compound 100 nM, 18 h): 70908 RLU and 75233 RLU
Luminescence, ADCC reporter assay ([2]; compound 300 nM, 18 h): 69068 RLU and 69848 RLU
Luminescence, ADCC reporter assay ([2]; compound 1000 nM, 18 h): 60578 RLU and 59440 RLU
EC50 ([3]; KILR Daudi cells, purified NK cells, one set of experiments (FIG. 3)): 5.9 nM
% dead cells, KILR ADCC killing assay ([3]; compound 0.3 nM): 5.8% and 5.1%
% dead cells, KILR ADCC killing assay ([3]; compound 1 nM): 5.6%
% dead cells, KILR ADCC killing assay ([3]; compound 3 nM): 6.4% and 7.1%
% dead cells, KILR ADCC killing assay ([3]; compound 10 nM): 7% and 7.7%
% dead cells, KILR ADCC killing assay ([3]; compound 100 nM): 8.9% and 10.1%
% dead cells, KILR ADCC killing assay ([3]; compound 300 nM): 8.5% and 9.6%
